Structures are written as SMILES.

What all share (assay type): in vivo
Assay [1] relates to collagen-induced platelet aggregation. The assay is described as follows: Platelet aggregation rate trial in rabbits, collagen-induced. Particulars: dose 60 mg/kg intragastric once a day for 7 days, n = 8. The protocol: (§1) The rabbits were randomly grouped into 4 groups: the model group was given with distilled water, the aspirin group ([…]), Extract A groups of low dose and high dose at 42 and 84 mg/kg (respectively 1 2 times of clinic equivalent dosage), intragastrically administrated, once a day for 7 consecutive days. The volume of medicine administrated was 1 ml/kg body weight. 60 min after intragastric administration on 7th day, the animals were anesthetized locally, blooded through carotid artery, anticoagulated with sodium citrate (3.8%) 1:9 and centrifugated at 1000 r/min for 10 min. Platelet-rich plasma (PRP) was taken and the remain centrifugated at 3000 r/min to take platelet-poor plasma (PPP. Aggregation was induced by ADP (final concentration 3 μg/ml), AA (final concentration 80 μg/ml) and collagen ([…]). […] platelet aggregation & coagulation factor analyzer was used to measure the maximum platelet aggregation rate and to calculate inhibition rate according to following formula. [formula] Results

The test system of assay [2] is AA-induced platelet aggregation. The assay is described as follows: Platelet aggregation rate trial in rabbits, AA-induced. As to conditions: AA 80 μg/ml; dose 60 mg/kg intragastric once a day for 7 days; n = 8. Here is the method: as §1
Assay [3] has as its system ADP-induced platelet aggregation. As to the kind of experiment: Platelet aggregation rate trial in rabbits, ADP-induced. As to conditions: ADP 3 μg/ml; dose 60 mg/kg intragastric once a day for 7 days; n = 8. The protocol: as §1

For `CC(=O)Oc1ccccc1C(=O)O` [Aspirin], the values for the Platelet aggregation rate in assay [1], in assay [2] and in assay [3] were 6.23 ± 2.41 %, 6.13 ± 2.03 % and 18.96 ± 4.11 %, respectively.

The record behind these values is patent USRE49050E1, “Traditional Chinese medicine composition, and preparation and application thereof” (Tasly Pharmaceutical Group Co., Ltd., priority 2013, dated 2022).
